Experimental data from ChEMBL document CHEMBL3046496, “Hydrolysis and Phytotoxic Activity ofN-Aryl-3,4,5,6-tetrahydroisophthalimides” (Biosci Biotechnol Biochem, 1993).

What was measured:
Format in all cases: ADME, organism-based
Scenedesmus acutus = experiment: Phytotoxic activity against Scenedesmus acutus assessed as protoporphyrin-IX accumulation at 1 uM incubated for 1 hr; conditions: in vivo
[1] = Drug hydrolysis in culture medium of Echinochloa esculenta assessed as compound degradation measured at zero period in culture experiment by HPLC method; conditions: read-out: Drug degradation
[2] = Half life in culture medium of Echinochloa esculenta after 7 days by HPLC method

degraded [1]	half-life [2]	SMILES	Activity (Scenedesmus acutus)
		O=C(O)C1=C(C(=O)Nc2ccc(Cl)cc2)CCCC1	17.6 nmol/mL
5%	57.6 h	O=C1O/C(=N\c2ccc(OCc3ccc(Cl)cc3)cc2)C2=C1CCCC2	
32%	14.4 h	C#CCOc1cc(/N=C2\OC(=O)C3=C2CCCC3)c(F)cc1Cl	
68%		O=C1O/C(=N\c2ccc(Cl)cc2F)C2=C1CCCC2	
33%	7.2 h	Cc1cc(Cl)ccc1/N=C1\OC(=O)C2=C1CCCC2	
10%	19.2 h	O=C1O/C(=N\c2ccc(Cl)cc2)C2=C1CCCC2	54.7 nmol/mL
		O=C1C2=C(CCCC2)C(=O)N1c1ccc(Cl)cc1 [CHLOROPHTHALIUM]	68.2 nmol/mL
